Data as given in patent publication US6946480B2, “Glutaminyl based DPIV inhibitors” (priority 2002, dated 2005).

Assays:
[1] = molecular target: T1, Prolidase from porcine kidney (Sus scrofa, UniProt A0A5G2QQV1); assay: Cross reacting enzymes - prolidase; type: biochemical
T1 sequence (A0A5G2QQV1 1-463): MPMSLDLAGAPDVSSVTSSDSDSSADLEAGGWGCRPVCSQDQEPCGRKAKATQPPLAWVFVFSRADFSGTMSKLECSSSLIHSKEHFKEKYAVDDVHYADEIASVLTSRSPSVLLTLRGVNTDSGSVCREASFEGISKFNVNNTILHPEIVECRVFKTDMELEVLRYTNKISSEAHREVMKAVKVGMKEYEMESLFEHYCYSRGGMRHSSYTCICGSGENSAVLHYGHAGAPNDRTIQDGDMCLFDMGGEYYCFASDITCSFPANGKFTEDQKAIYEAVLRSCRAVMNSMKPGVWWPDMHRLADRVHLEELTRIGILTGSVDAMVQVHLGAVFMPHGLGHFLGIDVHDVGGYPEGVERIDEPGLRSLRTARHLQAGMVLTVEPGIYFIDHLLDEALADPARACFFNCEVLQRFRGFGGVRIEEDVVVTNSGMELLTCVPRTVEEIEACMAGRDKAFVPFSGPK
Description: (§1) Glutaminyl pyrrolidine or glutaminyl thiazolidine were tested for their cross reacting potency against dipeptidyl peptidase I, prolyl oligopeptidase and prolidase.
Prolidase (EC 3.4.13.9) was first described by Bergmann & Fruton (Bergmann, M. & Fruton, J S, 1937, J. Biol. Chem. 189-202). Prolidase releases the N-terminal amino acid from Xaa-Pro dipeptides and has a pH optimum between 6 and 9.
Prolidase from porcine kidney (ICN Biomedicals, Eschwege, Germany). was solved (1 mg/ml) in assay buffer (20 mM NH4(CH3COO)2, 3 mM MnCl2, pH 7.6). In order to get a fully active enzyme the solution was incubated for 60 min at room temperature.
450 μl glutaminyl pyrrolidine or glutaminyl thiazolidine in an concentration range of 5*10^−3 M-5*10^−7 M were admixed with 500 μl buffer solution (20 mM NH4(CH3COO)2, pH 7.6) and 250 μl lle-Pro-OH (0.5 mM in the assay mixture). The assay mixture was pre-incubated at 30° C. for 5 min After pre-incubation, 75 μl Prolidase (1:10 diluted in assay buffer) were added and measurement was performed at 30° C. and λ=220 nm for 20 min using a UV/Vis photometer, UV1 (Thermo Spectronic, Cambridge, UK).
(§2) The IC50-values were calculated using Graphit 4.0.15 (Erithacus Software, Ltd., UK).

[2] = molecular target: T2, recombinant human prolyl oligopeptidase (POP) (Homo sapiens, UniProt P48147); assay: Cross reacting enzymes - prolyl oligopeptidase; type: biochemical; conditions: concentration range 1*10^−4 M-5*10^−8 M
T2 construct: made in house; host or cells: E. coli
T2 sequence (P48147 1-710): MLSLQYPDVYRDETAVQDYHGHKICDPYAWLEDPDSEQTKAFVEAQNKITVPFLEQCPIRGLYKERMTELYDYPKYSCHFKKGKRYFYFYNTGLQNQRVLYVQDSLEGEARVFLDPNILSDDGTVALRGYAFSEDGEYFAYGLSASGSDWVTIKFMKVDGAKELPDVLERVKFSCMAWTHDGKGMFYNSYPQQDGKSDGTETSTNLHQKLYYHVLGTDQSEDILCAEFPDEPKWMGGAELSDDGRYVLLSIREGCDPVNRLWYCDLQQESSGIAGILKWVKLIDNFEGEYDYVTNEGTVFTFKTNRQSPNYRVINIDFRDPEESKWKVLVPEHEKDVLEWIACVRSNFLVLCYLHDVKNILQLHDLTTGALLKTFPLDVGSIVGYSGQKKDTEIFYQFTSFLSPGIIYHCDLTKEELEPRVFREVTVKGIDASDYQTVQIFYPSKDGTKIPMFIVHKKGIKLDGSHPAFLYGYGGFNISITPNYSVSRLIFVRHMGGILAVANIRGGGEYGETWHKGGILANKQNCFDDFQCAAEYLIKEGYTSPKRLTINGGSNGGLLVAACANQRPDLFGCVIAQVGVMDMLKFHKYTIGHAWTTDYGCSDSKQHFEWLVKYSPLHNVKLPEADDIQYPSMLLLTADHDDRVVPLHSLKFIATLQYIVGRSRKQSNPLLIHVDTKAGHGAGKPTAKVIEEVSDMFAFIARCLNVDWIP
Description: as §1
Substrates are peptides with a molecular weight up to 3000 Da.
The enzyme used was a recombinant human prolyl oligopeptidase. Recombinant expression was performed in E. coli under standard conditions as described elsewhere in the state of the art.
100 μl glutaminyl pyrrolidine or glutaminyl thiazolidine in an concentration range of 1*10^−4 M-5*10^−8 M were admixed with 100 μl μl buffer solution (40 mM HEPES, pH7.6, 0.015% Brij, 1 mM DTT) and 20 μl POP solution. The assay mixture was pre-incubated at 30° C. for 15 min After pre-incubation, 50 μl glycylprolylprolyl-4-nitroaniline solution (0.29 mM) were added and measurement of yellow color development due to 4-nitroaniline release was performed at 30° C. and λ=405 nm for 10 min using a plate reader (sunrise, Tecan, Crailsheim, Germany).
as §2

efficacy against prolidase compared to DPIV [1]: marked lower efficacy
inhibition of POP activity [2]: no inhibition
SMILES: NC(=O)CC[C@H](N)C(=O)N1CCCC1 [glutaminyl pyrrolidine]
